# Test system: anti-PAH monoclonal antibody
# Experiment: PAH immunoassay (competitive, antibody coated tubes): cross-reactivity with the anti-PAH monoclonal antibody
# Assay type: binding, Balb/c mice
# Settings: Method 8310 EPA PAHs; phenanthrene 100%
# Method: Female Balb/c mice received a primary subcutaneous immunization with 50 ug of β-methylnaphthalene derivatized to bovine serum albumin in adjuvant (MPL+TDM Emulsion, RIBI Immunochem Research, Inc., Hamilton, Mont.). Subcutaneous secondary injections (25 ug) were given at day 21, 35, and then monthly. […] Hybridoma cultures producing monoclonal antibodies recognizing free hapten by EIA were cloned by limiting dilution.
# Antibody coated tubes were prepared by passively coating polystyrene (12X75 mm, NUNC) tubes with the monoclonal F12-3C8 antibody diluted in PBS and incubating overnight. The NUNC polystyrene tubes were rinsed with hexane prior to use and were all from the same lot.
# 10 g of a soil sample were placed in an extraction vial containing 20 mL of methanol and 5 steel pellets (6 mm) and the vial and its contents shaken for 1 minute to disperse the soil particles and extract the PAHs. The sample was then filtered to clarify the sample extract using a glass fiber depth filter and a 0.45μ Teflon filter. 45 uL of the clarified filtrate sample was mixed with 955 μl of 10 mM PBS (pH=7.4) and the resulting mixture added to lyophilized enzyme conjugate reagent (0.3 μg) and mixed. At the same time, 2×45 uL of the phenanthrene standard are similarly treated. The sample and the two standards were then poured into three identical antibody coated tubes, respectively, and the resulting solution mixed. The resulting solution was incubated for 10 minutes at ambient temperature and then washed 4X with a wash buffer (detergent-saline solution). 250 uL of tetramethylbenzidene solution (KP Laboratories, Cat. No. 50-76-02) was added along with 250 uL of hydrogen peroxide solution (KPL, Cat. No. 50-65-02) and the resultant solution mixed. After incubating for 2.5 minutes the color development reaction was stopped with 250 uL of stop solution (1M sulfuric acid).
# The optical density (OD) of the test sample was compared to the OD of the phenanthrene standard (0.65 ppm soil equivalents) which was tested simultaneously with the sample. If the sample OD is less than the standard OD, the sample contains more than 1 ppm PAH. […] Other concentration ranges can be assessed by diluting the test samples with suitable diluents, as long as they are non-reactive with the components of the assay.
# In addition other potentially cross-reactive compounds were tested.
row,Compound,Percent Cross-Reactivity
1,c1ccc2c(c1)Cc1ccccc1-2 [Fluorene],67%
2,c1ccc2c(c1)cc1ccc3cccc4ccc2c1c34 [Benzo(a)pyrene],12%
3,c1ccc2c(c1)-c1cccc3c1c-2cc1ccccc13 [Benzo(b)fluoranthene],22%
4,c1cc2ccc3cccc4ccc(c1)c2c34 [Pyrene],29%
5,"c1ccc2c(c1)ccc1cc3c(ccc4ccccc43)cc12 [Dibenzo(a,h)anthracene]",< 0.5%
6,c1ccc2cc3c(ccc4ccccc43)cc2c1 [Benzo(a)anthracene],64%
7,c1cc2c3c(cccc3c1)CC2 [Acenaphthene],12%
8,c1ccc2c(c1)ccc1c3ccccc3ccc21 [Chrysene],84%
9,c1cc2ccc3ccc4ccc5cccc6c(c1)c2c3c4c56 [Benzo(ghi)perylene],< 0.5%
10,C1=Cc2cccc3cccc1c23 [Acenaphthylene],13%
11,"c1ccc2c(c1)ccc1ccccc12 [Phenanthrene, reference compound]",100%
12,c1ccc2c(c1)-c1cccc3cccc-2c13 [Fluoranthene],73%
13,"c1ccc2c(c1)-c1ccc3ccc4cccc5cc-2c1c3c45 [Indeno(1,2,3-cd)pyrene]",9.4%
14,c1ccc2cc3ccccc3cc2c1 [Anthracene],123%
15,c1ccc2ccccc2c1 [Naphthalene],0.5%
16,c1ccc2cc3c(cc2c1)-c1cccc2cccc-3c12 [Benzo(k)fluoranthene],11%

# Same assay, conditions: Method 8310 EPA PAHs; soil equivalent
row,Compound,"Concentration Giving A Positive Result (ppm, soil equivalent)"
1,c1ccc2c(c1)Cc1ccccc1-2 [Fluorene],1.5 ppm
2,c1ccc2c(c1)cc1ccc3cccc4ccc2c1c34 [Benzo(a)pyrene],8.3 ppm
3,c1ccc2c(c1)-c1cccc3c1c-2cc1ccccc13 [Benzo(b)fluoranthene],4.6 ppm
4,c1cc2ccc3cccc4ccc(c1)c2c34 [Pyrene],3.5 ppm
5,"c1ccc2c(c1)ccc1cc3c(ccc4ccccc43)cc12 [Dibenzo(a,h)anthracene]",> 200 ppm
6,c1ccc2cc3c(ccc4ccccc43)cc2c1 [Benzo(a)anthracene],1.6 ppm
7,c1cc2c3c(cccc3c1)CC2 [Acenaphthene],8.1 ppm
8,c1ccc2c(c1)ccc1c3ccccc3ccc21 [Chrysene],1.2 ppm
9,c1cc2ccc3ccc4ccc5cccc6c(c1)c2c3c4c56 [Benzo(ghi)perylene],> 200 ppm
10,C1=Cc2cccc3cccc1c23 [Acenaphthylene],7.5 ppm
11,"c1ccc2c(c1)ccc1ccccc12 [Phenanthrene, reference compound]",1.0 ppm
12,c1ccc2c(c1)-c1cccc3cccc-2c13 [Fluoranthene],1.4 ppm
13,"c1ccc2c(c1)-c1ccc3ccc4cccc5cc-2c1c3c45 [Indeno(1,2,3-cd)pyrene]",11 ppm
14,c1ccc2cc3ccccc3cc2c1 [Anthracene],0.81 ppm
15,c1ccc2ccccc2c1 [Naphthalene],200 ppm
16,c1ccc2cc3c(cc2c1)-c1cccc2cccc-3c12 [Benzo(k)fluoranthene],9.4 ppm

# Same assay, conditions: Non-EPA PAHs and other compounds; phenanthrene 100%
row,Compound,Percent Cross-Reactivity
1,CCCCC(CC)COC(=O)c1ccccc1C(=O)OCC(CC)CCCC (centres unmarked) [Bis(2-ethylhexyl) phthalate],< 0.5%
2,Clc1cccc2ccccc12 [1-chloronaphthalene],1.7%
3,Cc1ccccc1 [Toluene],< 0.5%
4,Oc1c(Cl)c(Cl)c(Cl)c(Cl)c1Cl [Pentachlorophenol],< 0.5%
5,c1ccc2c(c1)oc1ccccc12 [Dibenzofuran],7.2%
6,Cc1ccc2ccccc2c1 [2-methylnaphthalene],1.7%
7,c1ccccc1 [Benzene],< 0.5%
8,"Clc1cc(Cl)cc(Cl)c1 [2,4,6-Trichlorobenzene]",< 0.5%
9,Clc1cc(Cl)c(Cl)c(Cl)c1Cl [Pentachlorobenzene],< 0.5%
10,"Clc1cc(Cl)c(Cl)cc1Cl [2,3,5,6-Tetrachlorobenzene]",< 0.5%
11,Cc1cccc2ccccc12 [1-methylnaphthalene],1.8%
12,Oc1ccccc1 [Phenol],< 0.5%

# Same assay, conditions: Non-EPA PAHs and other compounds; soil equivalent
row,Compound,"Concentration Giving a Positive Result (ppm, soil equivalent)"
1,CCCCC(CC)COC(=O)c1ccccc1C(=O)OCC(CC)CCCC (centres unmarked) [Bis(2-ethylhexyl) phthalate],> 200 ppm
2,Clc1cccc2ccccc12 [1-chloronaphthalene],59 ppm
3,Cc1ccccc1 [Toluene],> 200 ppm
4,Oc1c(Cl)c(Cl)c(Cl)c(Cl)c1Cl [Pentachlorophenol],> 200 ppm
5,c1ccc2c(c1)oc1ccccc12 [Dibenzofuran],14 ppm
6,Cc1ccc2ccccc2c1 [2-methylnaphthalene],58 ppm
7,c1ccccc1 [Benzene],> 200 ppm
8,"Clc1cc(Cl)cc(Cl)c1 [2,4,6-Trichlorobenzene]",> 200 ppm
9,Clc1cc(Cl)c(Cl)c(Cl)c1Cl [Pentachlorobenzene],> 200 ppm
10,"Clc1cc(Cl)c(Cl)cc1Cl [2,3,5,6-Tetrachlorobenzene]",> 200 ppm
11,Cc1cccc2ccccc12 [1-methylnaphthalene],54 ppm
12,Oc1ccccc1 [Phenol],> 200 ppm

# Same assay, conditions: at 200 ppm levels
row,Compound,detection in the immunoassay
1,c1ccccc1 [Benzene],not detected
2,Oc1ccccc1 [Phenol],not detected

# Same assay, conditions: in soils
row,Compound,concentration in soil at which the PAH immunoassay will provide a positive result
1,c1ccc2c(c1)cc1ccc3cccc4ccc2c1c34 [Benzo(a)pyrene],≥ 8.3 ppm

# Source: US5618681A, “Polyaromatic hydrocarbon (PAH) immunoassay method, its components and a kit for use in performing the same” (priority 1995, dated 1997)
